{
  "source": "patent US20240269139A1",
  "about": "“COMPOUNDS FOR TARGETED PROTEIN DEGRADATION OF KINASES” (DANA-FARBER CANCER INSTITUTE, INC., priority 2020, published 2024)",
  "assay_type_in_all_cases": "cell-based",
  "key": {"[1]": {"target": "protein kinases (human kinome) (Homo sapiens, UniProt Q13164)", "sequence (Q13164 whole entry)": "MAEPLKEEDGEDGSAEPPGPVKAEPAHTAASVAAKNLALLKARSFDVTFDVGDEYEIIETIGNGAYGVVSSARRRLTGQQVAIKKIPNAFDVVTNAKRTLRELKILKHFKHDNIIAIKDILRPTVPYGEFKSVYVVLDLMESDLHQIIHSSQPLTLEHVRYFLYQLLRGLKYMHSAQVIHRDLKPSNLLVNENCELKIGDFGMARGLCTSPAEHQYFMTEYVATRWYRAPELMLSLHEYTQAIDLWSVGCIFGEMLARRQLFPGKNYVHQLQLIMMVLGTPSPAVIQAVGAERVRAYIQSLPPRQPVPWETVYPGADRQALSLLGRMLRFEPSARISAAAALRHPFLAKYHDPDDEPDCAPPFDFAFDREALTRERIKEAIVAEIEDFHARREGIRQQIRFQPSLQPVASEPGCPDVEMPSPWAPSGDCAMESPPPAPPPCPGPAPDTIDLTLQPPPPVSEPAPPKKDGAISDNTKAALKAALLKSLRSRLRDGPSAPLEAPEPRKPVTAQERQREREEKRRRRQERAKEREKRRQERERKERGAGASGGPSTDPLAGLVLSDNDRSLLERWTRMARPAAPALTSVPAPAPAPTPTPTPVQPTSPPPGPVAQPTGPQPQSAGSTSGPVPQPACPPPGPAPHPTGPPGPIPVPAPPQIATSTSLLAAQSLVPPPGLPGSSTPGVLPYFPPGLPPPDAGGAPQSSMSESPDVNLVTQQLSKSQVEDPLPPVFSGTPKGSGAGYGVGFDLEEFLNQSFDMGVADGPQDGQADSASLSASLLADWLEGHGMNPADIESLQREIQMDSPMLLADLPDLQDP", "conditions": "MAPK7 (Q13164-1)"}, "[2]": {"target": "protein kinases (human kinome) (Homo sapiens, UniProt P00519)", "sequence (P00519 whole entry)": "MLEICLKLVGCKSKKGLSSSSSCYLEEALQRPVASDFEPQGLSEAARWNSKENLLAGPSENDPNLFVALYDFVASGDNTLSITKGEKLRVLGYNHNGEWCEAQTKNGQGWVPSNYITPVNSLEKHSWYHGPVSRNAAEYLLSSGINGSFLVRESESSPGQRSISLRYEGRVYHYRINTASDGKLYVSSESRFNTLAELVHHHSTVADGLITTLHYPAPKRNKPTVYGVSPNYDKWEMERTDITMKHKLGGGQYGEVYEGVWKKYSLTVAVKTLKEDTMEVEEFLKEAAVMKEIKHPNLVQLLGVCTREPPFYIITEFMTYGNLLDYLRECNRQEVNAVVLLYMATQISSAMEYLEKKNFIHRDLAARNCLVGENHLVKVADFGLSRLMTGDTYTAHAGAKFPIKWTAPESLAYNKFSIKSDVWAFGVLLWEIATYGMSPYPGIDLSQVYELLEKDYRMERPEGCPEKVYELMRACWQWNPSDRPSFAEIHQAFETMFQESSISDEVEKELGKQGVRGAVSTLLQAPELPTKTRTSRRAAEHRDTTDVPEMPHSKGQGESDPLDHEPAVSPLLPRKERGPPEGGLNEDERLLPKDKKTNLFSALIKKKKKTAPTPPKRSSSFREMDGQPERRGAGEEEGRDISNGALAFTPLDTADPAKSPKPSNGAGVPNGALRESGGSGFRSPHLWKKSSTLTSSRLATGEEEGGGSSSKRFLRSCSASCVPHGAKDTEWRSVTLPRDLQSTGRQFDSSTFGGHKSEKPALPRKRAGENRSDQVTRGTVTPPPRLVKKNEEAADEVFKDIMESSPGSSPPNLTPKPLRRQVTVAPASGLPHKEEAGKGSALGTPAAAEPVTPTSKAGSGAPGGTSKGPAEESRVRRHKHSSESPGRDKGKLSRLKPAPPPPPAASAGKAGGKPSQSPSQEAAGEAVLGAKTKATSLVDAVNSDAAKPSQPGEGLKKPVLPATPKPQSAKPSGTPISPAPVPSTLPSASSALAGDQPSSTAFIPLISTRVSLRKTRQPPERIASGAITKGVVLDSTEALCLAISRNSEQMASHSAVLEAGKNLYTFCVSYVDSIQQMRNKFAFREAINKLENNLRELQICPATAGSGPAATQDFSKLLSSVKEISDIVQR"}, "[3]": {"target": "protein kinases (human kinome) (Homo sapiens, UniProt Q7KZI7)", "sequence (Q7KZI7 whole entry)": "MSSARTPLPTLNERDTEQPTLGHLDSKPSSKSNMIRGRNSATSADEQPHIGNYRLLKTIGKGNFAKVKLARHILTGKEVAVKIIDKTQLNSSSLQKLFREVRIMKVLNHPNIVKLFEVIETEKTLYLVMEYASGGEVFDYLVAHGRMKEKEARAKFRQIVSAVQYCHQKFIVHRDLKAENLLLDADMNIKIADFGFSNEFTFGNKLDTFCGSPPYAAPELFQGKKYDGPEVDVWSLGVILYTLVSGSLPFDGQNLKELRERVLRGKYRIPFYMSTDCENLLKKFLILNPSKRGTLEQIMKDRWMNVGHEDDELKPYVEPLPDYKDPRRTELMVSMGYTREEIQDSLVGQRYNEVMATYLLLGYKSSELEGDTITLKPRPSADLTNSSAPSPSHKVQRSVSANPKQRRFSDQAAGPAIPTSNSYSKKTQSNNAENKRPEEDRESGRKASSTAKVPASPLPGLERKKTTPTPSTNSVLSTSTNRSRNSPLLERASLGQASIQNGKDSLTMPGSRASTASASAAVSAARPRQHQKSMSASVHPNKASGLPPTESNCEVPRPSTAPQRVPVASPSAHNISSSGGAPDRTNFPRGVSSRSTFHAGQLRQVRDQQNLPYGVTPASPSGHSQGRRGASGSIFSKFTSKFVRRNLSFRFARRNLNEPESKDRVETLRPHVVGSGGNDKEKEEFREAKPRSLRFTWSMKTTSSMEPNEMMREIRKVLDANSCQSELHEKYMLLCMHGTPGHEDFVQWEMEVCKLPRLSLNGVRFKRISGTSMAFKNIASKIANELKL"}, "[4]": {"target": "T1, protein kinases (human kinome) (Homo sapiens, UniProt Q08881)", "T1 sequence (Q08881 1-620)": "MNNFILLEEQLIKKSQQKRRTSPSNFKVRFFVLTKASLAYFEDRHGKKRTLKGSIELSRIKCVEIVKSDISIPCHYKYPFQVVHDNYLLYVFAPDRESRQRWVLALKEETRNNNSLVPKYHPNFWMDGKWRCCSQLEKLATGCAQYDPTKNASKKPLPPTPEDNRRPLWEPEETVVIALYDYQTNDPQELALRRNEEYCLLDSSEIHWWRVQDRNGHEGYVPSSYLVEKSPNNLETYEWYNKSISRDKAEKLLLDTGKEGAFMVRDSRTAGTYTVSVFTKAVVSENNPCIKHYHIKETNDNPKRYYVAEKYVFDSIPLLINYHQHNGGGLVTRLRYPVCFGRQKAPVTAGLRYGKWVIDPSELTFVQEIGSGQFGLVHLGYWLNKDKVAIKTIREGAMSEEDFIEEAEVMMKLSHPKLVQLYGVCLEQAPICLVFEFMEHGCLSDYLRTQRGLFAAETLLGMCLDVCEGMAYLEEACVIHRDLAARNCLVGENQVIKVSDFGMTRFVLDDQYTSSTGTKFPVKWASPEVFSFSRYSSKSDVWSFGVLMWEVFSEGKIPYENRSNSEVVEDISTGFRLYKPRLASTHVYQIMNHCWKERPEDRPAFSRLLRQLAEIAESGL", "conditions": "for logFC: ITK (Q08881) protein abundance, degrader vs DMSO, down"}, "[5]": {"target": "protein kinases (human kinome) (Homo sapiens, UniProt Q9Y2K2)", "sequence (Q9Y2K2 whole entry)": "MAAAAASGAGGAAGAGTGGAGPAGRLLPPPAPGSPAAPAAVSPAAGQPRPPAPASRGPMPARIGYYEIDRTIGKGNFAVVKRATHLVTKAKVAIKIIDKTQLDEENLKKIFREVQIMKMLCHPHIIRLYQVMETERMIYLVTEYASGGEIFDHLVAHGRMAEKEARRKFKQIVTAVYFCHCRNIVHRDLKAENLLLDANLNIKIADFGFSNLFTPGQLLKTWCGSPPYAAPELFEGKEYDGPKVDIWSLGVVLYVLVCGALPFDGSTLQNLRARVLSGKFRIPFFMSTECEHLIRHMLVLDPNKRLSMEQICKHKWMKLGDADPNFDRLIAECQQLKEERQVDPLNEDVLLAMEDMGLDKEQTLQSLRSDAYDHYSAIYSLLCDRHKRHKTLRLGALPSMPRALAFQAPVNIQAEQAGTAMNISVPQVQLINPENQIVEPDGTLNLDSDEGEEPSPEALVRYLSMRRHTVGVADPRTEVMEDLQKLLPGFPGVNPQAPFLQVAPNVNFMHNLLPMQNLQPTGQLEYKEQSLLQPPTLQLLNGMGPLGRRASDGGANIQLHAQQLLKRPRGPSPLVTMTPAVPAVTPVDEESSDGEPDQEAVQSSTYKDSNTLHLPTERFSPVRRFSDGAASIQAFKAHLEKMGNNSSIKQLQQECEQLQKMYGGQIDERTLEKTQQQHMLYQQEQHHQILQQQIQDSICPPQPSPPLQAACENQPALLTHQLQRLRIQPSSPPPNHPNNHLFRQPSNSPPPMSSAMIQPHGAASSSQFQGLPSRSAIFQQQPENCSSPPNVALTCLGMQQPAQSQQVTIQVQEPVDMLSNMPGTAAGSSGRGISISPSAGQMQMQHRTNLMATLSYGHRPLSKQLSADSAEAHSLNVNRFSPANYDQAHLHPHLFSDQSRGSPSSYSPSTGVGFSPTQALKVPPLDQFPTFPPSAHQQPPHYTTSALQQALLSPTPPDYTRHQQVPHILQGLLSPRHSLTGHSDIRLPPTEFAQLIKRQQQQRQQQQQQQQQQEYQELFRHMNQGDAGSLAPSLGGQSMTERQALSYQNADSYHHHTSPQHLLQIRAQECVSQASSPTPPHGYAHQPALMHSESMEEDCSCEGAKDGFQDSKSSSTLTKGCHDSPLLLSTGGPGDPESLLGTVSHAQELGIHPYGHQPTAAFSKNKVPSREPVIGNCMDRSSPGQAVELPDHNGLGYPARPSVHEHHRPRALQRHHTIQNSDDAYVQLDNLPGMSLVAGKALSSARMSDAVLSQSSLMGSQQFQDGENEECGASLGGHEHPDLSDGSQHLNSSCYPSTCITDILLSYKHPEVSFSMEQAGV", "conditions": "for logFC: SIK3 (Q9Y2K2)"}, "[6]": {"target": "protein kinases (human kinome) (Homo sapiens, UniProt Q9NYL2)", "sequence (Q9NYL2 whole entry)": "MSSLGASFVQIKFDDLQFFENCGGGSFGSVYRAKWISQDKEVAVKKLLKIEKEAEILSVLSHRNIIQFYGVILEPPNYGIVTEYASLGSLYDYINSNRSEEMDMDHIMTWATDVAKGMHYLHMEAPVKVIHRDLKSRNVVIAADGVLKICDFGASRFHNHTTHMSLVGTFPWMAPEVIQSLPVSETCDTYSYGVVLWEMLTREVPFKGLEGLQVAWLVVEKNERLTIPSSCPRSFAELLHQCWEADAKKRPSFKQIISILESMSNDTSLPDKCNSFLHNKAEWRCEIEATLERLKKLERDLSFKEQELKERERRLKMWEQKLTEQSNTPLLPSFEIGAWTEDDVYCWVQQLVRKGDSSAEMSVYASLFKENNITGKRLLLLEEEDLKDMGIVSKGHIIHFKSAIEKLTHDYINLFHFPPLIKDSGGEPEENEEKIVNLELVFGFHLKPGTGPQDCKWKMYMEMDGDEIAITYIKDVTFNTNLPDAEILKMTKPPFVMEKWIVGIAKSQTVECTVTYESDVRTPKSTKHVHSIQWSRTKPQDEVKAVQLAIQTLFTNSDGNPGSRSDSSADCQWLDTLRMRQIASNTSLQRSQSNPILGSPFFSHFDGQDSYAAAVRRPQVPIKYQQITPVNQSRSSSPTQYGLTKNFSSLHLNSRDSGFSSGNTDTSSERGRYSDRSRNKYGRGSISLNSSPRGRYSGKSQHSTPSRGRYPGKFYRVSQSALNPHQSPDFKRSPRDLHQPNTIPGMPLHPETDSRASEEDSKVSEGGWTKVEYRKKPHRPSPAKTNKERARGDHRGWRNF", "conditions": "MAP3K20 Q9NYL2; experiment wp168"}},
  "note": "Where two headings read alike, the source gives them in different places.",
  "data": [
    {"smiles": "CC(C)S(=O)(=O)c1ccccc1Nc1nc(Nc2ccc(N3CCN(CCOCCNC(=O)CNc4cccc5c4C(=O)N(C4CCC(=O)NC4=O)C5=O)CC3)cc2)ncc1Cl", "note": "(stereo not drawn) [SK.3.91]", "values": [
      {"measurement": "logFC", "setting": "[1]; experiment wp016, 1 uM", "value": "−0.3924"},
      {"measurement": "logFC", "setting": "[1]; experiment wp016, 1 uM, direction down", "value": "−0.3924"},
      {"measurement": "logFC ABL1 (P00519)", "setting": "[2]; experiment wp160, 4 hr", "value": "−0.3545"},
      {"measurement": "logFC of ABL1 (P00519)", "setting": "[2]; experiment wp160, 4 hr", "value": "−0.3545"},
      {"measurement": "logFC", "setting": "[3]; MARK2 (Q7KZI7-1), experiment wp107, direction down", "value": "−0.5266"},
      {"measurement": "logFC", "setting": "[3]; MARK2 (Q7KZI7-1), experiment wp172, direction down", "value": "−0.6351"},
      {"measurement": "logFC", "setting": "[3]; MARK2 Q7KZI7-1, experiment wp107", "value": "−0.5266"},
      {"measurement": "logFC", "setting": "[3]; MARK2 Q7KZI7-1, experiment wp172", "value": "−0.6351"},
      {"measurement": "logFC ITK (Q08881)", "setting": "[4]; Experiment wp103", "value": "−1.663"},
      {"measurement": "logFC ITK (Q08881)", "setting": "[4]; Experiment wp107", "value": "−1.963"},
      {"measurement": "logFC ITK (Q08881)", "setting": "[4]; Experiment wp160, 2 hr", "value": "−0.799"},
      {"measurement": "logFC", "setting": "[4]; 2 hr", "value": "−0.799"},
      {"measurement": "logFC", "setting": "[4]; 4 hr", "value": "−1.783"},
      {"measurement": "logFC ITK (Q08881)", "setting": "[4]; experiment wp016", "value": "−2.308"},
      {"measurement": "logFC ITK (Q08881)", "setting": "[4]; experiment wp016, 1 uM", "value": "−2.033"},
      {"measurement": "logFC ITK (Q08881)", "setting": "[4]; experiment wp016, 1 uM, direction of change down", "value": "−2.033"},
      {"measurement": "logFC ITK (Q08881)", "setting": "[4]; experiment wp016, direction of change down", "value": "−2.308"},
      {"measurement": "logFC ITK (Q08881)", "setting": "[4]; experiment wp103, direction of change down", "value": "−1.663"},
      {"measurement": "logFC ITK (Q08881)", "setting": "[4]; experiment wp107, direction of change down", "value": "−1.963"},
      {"measurement": "logFC ITK (Q08881)", "setting": "[4]; experiment wp133, 1 hr", "value": "−0.3741"},
      {"measurement": "logFC ITK (Q08881)", "setting": "[4]; experiment wp133, 1 hr, direction of change down", "value": "−0.3741"},
      {"measurement": "logFC ITK (Q08881)", "setting": "[4]; experiment wp133, 2 hr", "value": "−0.8321"},
      {"measurement": "logFC ITK (Q08881)", "setting": "[4]; experiment wp133, 2 hr, direction of change down", "value": "−0.8321"},
      {"measurement": "logFC ITK (Q08881)", "setting": "[4]; experiment wp133, 4 hr", "value": "−1.654"},
      {"measurement": "logFC ITK (Q08881)", "setting": "[4]; experiment wp133, 4 hr, direction of change down", "value": "−1.654"},
      {"measurement": "logFC ITK (Q08881)", "setting": "[4]; experiment wp160, 4 hr", "value": "−1.783"}
    ]},
    {"smiles": "Cc1cnc(Nc2ccc(N3CCN(CCCCCCC(=O)N[C@H](C(=O)N4C[C@H](O)C[C@H]4C(=O)N[C@@H](C)c4ccc(-c5scnc5C)cc4)C(C)(C)C)CC3)cc2)nc1Nc1cccc(S(=O)(=O)NC(C)(C)C)c1", "note": "[JWG.123]", "values": [
      {"measurement": "logFC of SIK3 (Q9Y2K2)", "setting": "[5]; Experiment wp195", "value": "−1.322"},
      {"measurement": "logFC", "setting": "[5]; experiment wp195", "value": "−1.322"}
    ]},
    {"smiles": "Cc1ccc(NC(=O)c2cccc(C(F)(F)F)c2)cc1N1Cc2cnc(Nc3ccc(N4CCN(CCCCC(=O)N[C@H](C(=O)N5C[C@H](O)C[C@H]5C(=O)N[C@@H](C)c5ccc(-c6scnc6C)cc5)C(C)(C)C)CC4)nc3)nc2N(C)C1=O", "note": "[DB1113]", "values": [
      {"measurement": "logFC", "setting": "[1]; experiment wp168", "value": "−0.766"},
      {"measurement": "logFC", "setting": "[1]; experiment wp168, direction down", "value": "−0.766"},
      {"measurement": "logFC of SIK3 (Q9Y2K2)", "setting": "[5]; Experiment wp168", "value": "−1.602"},
      {"measurement": "logFC", "setting": "[5]; experiment wp168", "value": "−1.602"},
      {"measurement": "logFC of ABL1 (P00519)", "setting": "[2]; Experiment wp168", "value": "−1.014"},
      {"measurement": "logFC ABL1 (P00519)", "setting": "[2]; experiment wp168", "value": "−1.014"},
      {"measurement": "logFC MAP3K20", "setting": "[6]", "value": "−1.38"}
    ]},
    {"smiles": "Cc1ncsc1-c1ccc([C@H](C)NC(=O)[C@@H]2C[C@@H](O)CN2C(=O)[C@@H](NC(=O)CCCCCN2CCc3cc(Nc4ncc(C5CC5)c(NCCCNC(=O)C5CCC5)n4)ccc3C2)C(C)(C)C)cc1", "note": "[BSJ.05.026]", "values": [
      {"measurement": "logFC of SIK3 (Q9Y2K2)", "setting": "[5]; Experiment wp195", "value": "−1.186"},
      {"measurement": "logFC", "setting": "[5]; experiment wp195", "value": "−1.186"},
      {"measurement": "logFC", "setting": "[3]; MARK2 (Q7KZI7-1), experiment wp195, direction down", "value": "−1.239"},
      {"measurement": "logFC", "setting": "[3]; MARK2 Q7KZI7-1, experiment wp195", "value": "−1.239"}
    ]}
  ]
}
